Assay results from patent US9365522B2, “Pyrazole amide derivative” (AMGEN INC., priority 2015, dated 2016).

Target: T1, ligand binding domain of human ROR gamma (Homo sapiens, UniProt P51449)
T1 construct: NM_001001523; expressed in transfected cells; host or cells: HEK293T
T1 sequence (P51449 247-497 isoform P51449-2): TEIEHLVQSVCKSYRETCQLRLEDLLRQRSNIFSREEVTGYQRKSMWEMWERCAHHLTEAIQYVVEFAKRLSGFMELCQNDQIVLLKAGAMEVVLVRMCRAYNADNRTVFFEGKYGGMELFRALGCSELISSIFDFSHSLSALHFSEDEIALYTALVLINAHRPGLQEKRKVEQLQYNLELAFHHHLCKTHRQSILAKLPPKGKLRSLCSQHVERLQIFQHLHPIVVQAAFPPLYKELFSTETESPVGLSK
Assay: ROR gamma reporter gene assay (GAL4-RORγ LBD luciferase, Dual-Glo)
Type: cell-based
Details: HEK293T cells transfected with pM-ROR gamma, 8 concentrations 3.5 nM to 10.5 μM, 24 h incubation; read-out: result (pIC50, inhibition of RORγ transcriptional activity) (converted)
Method in brief: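 Inhibition of RORγ-driven transcription was measured in HEK293T cells expressing a GAL4 fusion of the human RORγ LBD (aa 247-497), with renilla luciferase as internal control. Cells in 10% charcoal-stripped serum received compound (3.5 nM–10.5 μM) for 24 h.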

| Compound | IC50 |
| --- | --- |
| CC1(C)CCC(N(CC(=O)c2c(Cl)cccc2Cl)C(=O)c2cnn([C@H]3CC[C@](C)(C(=O)O)CC3)c2C(F)(F)F)CC1 [Example 283, trans-4-(4-((2-(2,6-dichlorophenyl)-2-oxoethyl)-(4,4-dimethylcyclohexyl)carbamoyl)-5-(trifluoromethyl)pyrazol-1-yl)-1-methylcyclohexane-1-carboxylic acid] | 9120 pM |
| C[C@]1(C(=O)O)CC[C@H](n2ncc(C(=O)N(CC(=O)c3c(Cl)cc(Cl)cc3Cl)CC3CC4(CC4)C3)c2C(F)(F)F)CC1 [Example 234, trans-4-(4-((2-oxo-2-(2,4,6-trichlorophenyl)ethyl)-(spiro[2.3]hexan-5-ylmethyl)carbamoyl)-5-(trifluoromethyl)pyrazol-1-yl)-1-methylcyclohexane-1-carboxylic acid] | 10000 pM |
| Cc1nccnc1C(O)CN(C(=O)c1cnn([C@H]2CC[C@](C)(C(=O)O)CC2)c1C(F)(F)F)[C@H]1C[C@@H]2[C@H](C1)C2(C)C (stereo partly drawn) [Example 410, trans-4-(4-(((1R,3r,5S)-6,6-dimethylbicyclo[3.1.0]hexan-3-yl)(2-hydroxy-2-(3-methylpyrazin-2-yl)ethyl)carbamoyl)-5-(trifluoromethyl)-1H-pyrazol-1-yl)-1-methylcyclohexanecarboxylic acid] | 2.14e+06 pM |
| Cc1cc(Cl)c(C(=O)CN(C(=O)c2cnn([C@H]3CC[C@](C)(C(=O)O)CC3)c2C(F)(F)F)[C@H]2C[C@@H]3[C@H](C2)C3(C)C)c(Cl)c1 [Example 277, trans-4-(4-((2-(2,6-dichloro-4-methylphenyl)-2-oxoethyl)((1R,3r,5S)-6,6-dimethylbicyclo[3.1.0]hexan-3-yl)carbamoyl)-5-(trifluoromethyl)-1H-pyrazol-1-yl)-1-methylcyclohexanecarboxylic acid] | 7240 pM |
| COc1cccc(O)c1C(=O)CN(Cc1cc(F)cc(F)c1)C(=O)c1cnn([C@H]2CC[C@H](C(=O)O)CC2)c1C(F)(F)F [Example 7, trans-4-(4-((3,5-difluorobenzyl)(2-(2-hydroxy-6-methoxyphenyl)-2-oxoethyl)carbamoyl)-5-(trifluoromethyl)-1H-pyrazol-1-yl)cyclohexanecarboxylic acid] | 4.57e+06 pM |

Other lines, results leading:

| IC50 | Compound |
| --- | --- |
| 204000 pM | O=C(CN(Cc1ccc(F)cc1)C(=O)c1cnn([C@H]2CC[C@](O)(C(=O)O)CC2)c1C(F)(F)F)c1c(Cl)cncc1Cl [Example 105, cis-4-(4-((2-(3,5-dichloropyridin-4-yl)-2-oxoethyl)-((4-fluorophenyl)methyl)carbamoyl)-5-(trifluoromethyl)pyrazol-1-yl)-1-hydroxycyclohexane-1-carboxylic acid] |
| > 1e+07 pM | NCc1c(C(=O)N(CC(=O)c2c(Cl)cncc2Cl)Cc2cc(F)cc(F)c2)cnn1[C@H]1CC[C@H](C(=O)O)CC1 [Example 163, trans-4-(5-(aminomethyl)-4-((2-(3,5-dichloropyridin-4-yl)-2-oxoethyl)-((3,5-difluorophenyl)methyl)carbamoyl)pyrazol-1-yl)cyclohexane-1-carboxylic acid] |
| 83200 pM | O=C(CN(Cc1cc(F)cc(F)c1)C(=O)c1cnn([C@H]2CC[C@H](C(=O)O)CC2)c1C(F)(F)F)c1c(Cl)cc(C2CC2)cc1Cl [Example 66, trans-4-(4-((2-(2,6-dichloro-4-cyclopropylphenyl)-oxoethyl)(3,5-difluorobenzyl)carbamoyl)-5-(trifluoromethyl)-1H-pyrazol-1-yl)cyclohexanecarboxylic acid] |
| 110000 pM | CC(C)[C@H]1C[C@@H]1N(CC(=O)c1c(Cl)cncc1Cl)C(=O)c1cnn([C@H]2CC[C@](C)(C(=O)O)CC2)c1C(F)(F)F [Example 346, trans-4-(4-((2-(3,5-dichloropyridin-4-yl)-2-oxoethyl)-((1S,2R)-2-propan-2-ylcyclopropyl)carbamoyl)-5-(trifluoromethyl)pyrazol-1-yl)-1-methylcyclohexane-1-carboxylic acid] |
